Test results as given in patent US20030130280A1, “Treatment of acute myeloid leukemia with indolinone compounds” (SUGEN, Inc., priority 2001, published 2003).

Legend:
[1] = molecular target: T1, Wild-type FLT-3 (Homo sapiens, UniProt P36888); test: FLT-3 phosphorylation by immunoprecipitation/Western in RS411 cells; format: cell-based; conditions: for Wild-type FLT-3 (inhibition of phosphorylation): RS411 cells, IP/Western; on Wild-type FLT-3 (inhibition of phosphorylation): key: +++: very strong inhibition; ++: inhibition; +/−: weak inhibition; −: no inhibition
T1 construct: host or cells: RS411 (RS4;11)
T1 sequence (P36888 27-993): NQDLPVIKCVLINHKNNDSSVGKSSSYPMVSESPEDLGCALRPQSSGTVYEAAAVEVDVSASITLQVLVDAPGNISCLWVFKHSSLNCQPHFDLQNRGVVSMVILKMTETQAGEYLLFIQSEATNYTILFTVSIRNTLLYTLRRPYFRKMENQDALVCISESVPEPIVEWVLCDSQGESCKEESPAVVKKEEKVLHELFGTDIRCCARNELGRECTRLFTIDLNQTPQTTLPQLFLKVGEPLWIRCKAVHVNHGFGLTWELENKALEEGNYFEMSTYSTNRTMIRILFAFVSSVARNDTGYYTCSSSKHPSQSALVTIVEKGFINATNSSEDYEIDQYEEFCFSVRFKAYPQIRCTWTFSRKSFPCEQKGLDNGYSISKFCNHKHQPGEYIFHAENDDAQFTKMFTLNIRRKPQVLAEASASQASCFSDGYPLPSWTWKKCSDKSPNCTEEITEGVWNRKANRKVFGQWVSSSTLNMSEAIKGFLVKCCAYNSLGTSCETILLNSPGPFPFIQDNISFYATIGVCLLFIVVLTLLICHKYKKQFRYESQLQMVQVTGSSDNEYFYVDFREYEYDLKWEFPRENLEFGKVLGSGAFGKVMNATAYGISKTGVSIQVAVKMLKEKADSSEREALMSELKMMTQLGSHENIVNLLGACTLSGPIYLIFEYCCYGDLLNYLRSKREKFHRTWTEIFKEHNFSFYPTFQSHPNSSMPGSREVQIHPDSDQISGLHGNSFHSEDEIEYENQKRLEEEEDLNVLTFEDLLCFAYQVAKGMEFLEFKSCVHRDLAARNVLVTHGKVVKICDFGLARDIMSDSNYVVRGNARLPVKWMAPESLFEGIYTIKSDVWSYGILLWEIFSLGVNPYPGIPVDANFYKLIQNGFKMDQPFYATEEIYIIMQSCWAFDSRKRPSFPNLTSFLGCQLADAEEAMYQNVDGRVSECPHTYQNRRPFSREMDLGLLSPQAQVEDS
Description: FLT-3 was immunoprecipitated from lysates with a commercially available antibody. Proteins were separated by SDS-polyacrylamide gel electrophoresis, transferred to membranes analyzed by Western blotting for phosphotyrosine and subsequently for total FLT-3 protein as control. […]
(§1) Immunoprecipitation and Western Blot (IP/W) analysis: Cells were lysed in lysis buffer (20 mM Tris, pH 7.5; 137 mM NaCl; 10% glycerol; 1% NP-40; 0.1% SDS; 2 mM EDTA) containing protease and phosphatase inhibitors (50 mM sodium fluoride, 1 mM sodium orthovanadate, 2 mM Pefabloc, […], […], […], 4 mM leupeptin, and 4 mM pepstatin A). Equivalent amounts of protein were separated by SDS-PAGE, then transferred to nitrocellulose membranes. For analysis of FLT3 phosphorylation, equivalent amounts of protein from each sample were immunoprecipitated overnight at 4*C. with an agarose-conjugated anti-FLT3 antibody (Santa Cruz Biotechnology, Santa Cruz, Calif.). Immune complexes were washed (150 mM NaCl, 1.5 mM MgCl2, 50 mM HEPES, pH 7.5, 10% glycerol, 0.1% Triton X-100, and 1 mM EGTA) and following SDS-PAGE, proteins were transferred to nitrocellulose membranes. Membranes were probed with an anti-phosphotyrosine antibody (Upstate, Lake Placid, N.Y. or Transduction Laboratories, Lexington, Ky.) and then stripped with Restore Western Blot Stripping Buffer (Pierce, Rockford, Ill.). Membranes were reprobed with an anti-FLT3 antibody (Santa Cruz Biotechnology). Stat5 antibodies for immunprecipitation and Western blot analysis were from Upstate Biotechnology and Transduction labs respectively.

[2] = molecular target: T2, Mutant FLT-3 (ITD) (Homo sapiens, UniProt P36888, INS600HVDFREYEYD); test: FLT-3 phosphorylation by immunoprecipitation/Western in MV411 cells; format: cell-based; conditions: for Mutant FLT-3 (inhibition of phosphorylation): MV411 cells, IP/Western; on Mutant FLT-3 (inhibition of phosphorylation): key: +++: very strong inhibition; ++: inhibition; +/−: weak inhibition; −: no inhibition
T2 sequence (P36888 27-993 INS600HVDFREYEYD): T1 sequence (P36888 27-993)
Description: FLT-3 was immunoprecipitated from lysates with a commercially available antibody. Proteins were separated by SDS-polyacrylamide gel electrophoresis, transferred to membranes analyzed by Western blotting for phosphotyrosine and subsequently for total FLT-3 protein as control.
The comparative example is a known protein kinase inhibitor having the following formula: [drawing 18]
as §1

SMILES	Wild-type FLT-3 (inhibition of phosphorylation) [1]	inhibition of wild-type FLT-3 phosphorylation ([1]; in words)	Mutant FLT-3 (inhibition of phosphorylation) [2]	inhibition of mutant FLT-3 phosphorylation ([2]; in words)
Cc1[nH]c(/C=C2\C(=O)Nc3ccc(F)cc32)c(C)c1C(=O)N1CCC(N2CCOCC2)CC1 [Compound 9, 3-[3,5-dimethyl-4-(4-morpholin-4-yl-piperidine-1-carbonyl)-1H-pyrrol-2-methylene]-5-fluoro-1,3-dihydro-indol-2-one]	++			
Cc1[nH]c(/C=C2\C(=O)Nc3ccccc32)c(C)c1CCC(=O)O [Comparative, reference compound]	−	no inhibition	−	no inhibition
Cc1[nH]c(C=C2C(=O)Nc3ccc(F)cc32)c(C)c1C(=O)NCCN1CCCC1 [Compound 2, 5-(5-Fluoro-2-oxo-1,2-dihydro-indol-3-ylidenemethyl)-2,4-dimethyl-1H-pyrrole-3-carboxylic acid(2-pyrrolidin-1-yl-ethyl)-amide]	++		++	
CCNCCNC(=O)c1c(C)[nH]c(C=C2C(=O)Nc3ccc(F)cc32)c1C [Compound 8, 5-(5-Fluoro-2-oxo-1,2-dihydro-indol-3-ylidenemethyl)-2,4-dimethyl-1H-pyrrole-3-carboxylic acid(2-ethylamino-ethyl)-amide]	++			
Cc1cc(CCC(=O)O)c(C=C2C(=O)Nc3ccccc32)[nH]1 [Compound 10, 3-[5-methyl-2-(2-oxo-1,2-dihydro-indol-3-ylidenemethyl)-1H-pyrrol-3-yl]-propionic acid]	+/−		−	
Cc1[nH]c(C=C2C(=O)Nc3ccc(Cl)cc32)c(C)c1C(=O)NCC(O)CN1CCOCC1 (stereo not drawn) [Compound 7, 5-(5-Chloro-2-oxo-1,2-dihydro-indol-3-ylidenemethyl)-2,4-dimethyl-1H-pyrrole-3-carboxylic acid(2-hydroxy-3-morpholin-4-yl-propyl)-amide]	++			
Cc1[nH]c(C=C2C(=O)Nc3ccc(F)cc32)c(C)c1C(=O)NCCN1CCOCC1 [Compound 3, 5-(5-Fluoro-2-oxo-1,2-dihydro-indol-3-ylidenemethyl)-2,4-dimethyl-1H-pyrrole-3-carboxylic acid(2-morpholin-4-yl-ethyl)-amide]	+/−			
